Results from patent US7585864B2, “Farnesyl protein transferase inhibitors and their use to treat cancer” (Schering Corporation, priority 2004, dated 2009).

Columns and labels:
[1] = tested on: Human tumor cells; test: Soft Agar Assay (anchorage-independent growth); format: cell-based; conditions: colony outgrowth in 0.3% agarose, 10-16 days, MTT staining
Experimental: Anchorage-independent growth is a characteristic of tumorigenic cell lines. Human tumor cells can be suspended in growth medium containing 0.3% agarose and an indicated concentration of a farnesyl transferase inhibitor. The solution can be overlayed onto growth medium solidified with 0.6% agarose containing the same concentration of farnesyl transferase inhibitor as the top layer. After the top layer is solidified, plates can be incubated for 10-16 days at 37° C. under 5% CO2 to allow colony outgrowth. After incubation, the colonies can be stained by overlaying the agar with a solution of MTT (3-[4,5-dimethyl-thiazol-2-yl]-2,5-diphenyltetrazolium bromide, Thiazolyl blue) (1 mg/mL in PBS). Colonies can be counted and the IC50's can be determined.

[2] = target: purified human farnesyl protein transferase (Homo sapiens, UniProt P49354+P49356); test: FPT IC50 Assay; format: biochemical; conditions: transfer of [3H] farnesyl to biotinylated H-ras peptide (biotin-CVLS), 37° C., 60 minutes
Experimental: FPT activity was determined by measuring the transfer of [^3H] farnesyl from [^3H] farnesyl pyrophosphate to a biotinylated peptide derived from the C-terminus of H-ras (biotin-CVLS). The reaction mixture contains: 50 mM Tris pH7.7, 5 mM MgCl2, 5 μM Zn^++, 5 mM DTT, 0.1% Triton-X, 0.05 μM peptide, 0.03 nM purified human farnesyl protein transferase, 0.180 μM [^3H] farnesyl pyrophosphate, plus the indicated concentration of tricyclic compound or vehicle control in a total volume of 100 μl. The reaction was incubated in a Vortemp shaking incubator at 37° C., 45 RPM for 60 minutes and stopped with 150 μl of 0.25 M EDTA containing 0.5% BSA and 1.3 mg/ml Streptavidin SPA beads. Radioactivity was measured in a Wallach 1450 Microbeta liquid scintillation counter. Percent inhibition was calculated relative to the vehicle control.

Row | IC50 [1] | IC50 [2] | SMILES
1 | 28 nM | 3 nM | Cc1cn(CCCN(Cc2ccccc2)C(=O)[C@H]2CN([C@H]3c4ccc(Cl)cc4OCc4cccnc43)CCN2C(=O)OC(C)(C)C)cn1 [Example 1]
2 | < 5 nM | 0.12 nM | Cc1cn(C[C@@H]2CCCN(C(=O)[C@@H]3CN([C@H]4c5ccc(Cl)cc5OCc5cccnc54)CCN3C(=O)OC(C)(C)C)C2)cn1 [Example 4]
3 | – | 0.16 nM | Cc1cn(C[C@@H]2CCCN(C(=O)[C@H]3CN([C@@H]4c5ccc(Cl)cc5OCc5cccnc54)CCN3C(=O)OC3CCCCC3)C2)cn1 [Example 11]
